For data set [1], the system named is BE(2)-C. The experiment in a line: Upregulation of acetylated SMC3 expression in human BE2C cells by Western blot analysis. The data set is classed as functional, cell-based. The conditions noted are these: dose 25-100 nM.
The nature of data set [2]: Toxicity in nude mouse xenografted with human BE2C cells assessed as body weight loss at 25 mg/kg, ip treated for every 3 days. It counts as organism-based. The note with it: in vivo, 72 h, time 3 day. (Xenograft models place foreign cells or tissue in a host animal.)
Data set [3] deals with BE(2)-C. Kind of data set: Upregulation of Bax expression in human BE2C cells at 25 to 100 nM by Western blot analysis. The data set is classed as functional, cell-based. The conditions noted are these: dose 25-100 nM. (A western blot detects proteins with antibodies after separation by electrophoresis.)
Data set [4] has as its system BE(2)-C. Kind of data set: Induction of apoptosis in human BE2C cells assessed as viable cells at 100 nM incubated for 48 hrs by annexin V-FITC/PI staining based flow cytometry (reference value: 82.16 %). The data set is classed as functional. The note with it: read-out: Activity. (A flow cytometer gives signals particle by particle.)
Data set [5] concerns BE(2)-C. Kind of data set: Induction of apoptosis in human BE2C cells assessed as late apoptotic cells at 50 nM incubated for 48 hrs by annexin V-FITC/PI staining based flow cytometry (reference value: 9.99 %). The data set is classed as functional.
A further data set has as its target Tubulin (Homo sapiens) (UniProt P68371+Q9H4B7+P0DPH7+P68366+Q13509+Q71U36+P04350+Q3ZCM7+P07437+P68363+Q9BQE3+Q6PEY2+Q13885+Q9BVA1+Q9BUF5). Kind of data set: Inhibition of tubulin polymerization in human BE2C cells assessed as disruption of fibrous microtubule network at 25 to 100 nM incubated for 24 hrs by immunofluorescence based microscopy. The conditions noted are these: dose 25-100 nM. It counts as cell-based.

A short description of data set [6]: Metabolic stability in human liver microsomes assessed as compound remaining incubated for 20 mins. It counts as ADME, Microsome. The note with it: microsomes, 20 min.
Data set [7] concerns BE(2)-C. Kind of data set: Induction of apoptosis in human BE2C cells assessed as viable cells at 50 nM incubated for 48 hrs by annexin V-FITC/PI staining based flow cytometry (reference value: 82.16 %). The note with it: read-out: Activity. The data set is classed as functional.
The subject of data set [8] is BE(2)-C. The experiment in a line: Induction of apoptosis in human BE2C cells assessed as necrotic cells at 25 nM incubated for 48 hrs by annexin V-FITC/PI staining based flow cytometry (reference value: 3.57 %). The data set is classed as functional.
The test system of data set [9] is BE(2)-C. Kind of data set: Induction of apoptosis in human BE2C cells assessed as early apoptotic cells at 25 nM incubated for 48 hrs by annexin V-FITC/PI staining based flow cytometry (reference value: 4.28 %). It counts as functional.
The test system of data set [10] is BE(2)-C. Kind of data set: Inhibition of colony formation in human BE2C cells incubated for 36 hrs by gentian violet staining based assay. It counts as functional, cell-based. The conditions noted are these: dose 25-100 nM.
The target of the next data set is Histone deacetylase 1 (Homo sapiens, UniProt Q13547). The experiment in a line: Inhibition of HDAC1 (unknown origin).
For data set [11], the system named is BE(2)-C. Kind of data set: Induction of apoptosis in human BE2C cells assessed as necrotic cells at 100 nM incubated for 48 hrs by annexin V-FITC/PI staining based flow cytometry (reference value: 3.57 %). It counts as functional.
In data set [12] the test system is BE(2)-C. The experiment in a line: Induction of apoptosis in human BE2C cells assessed as late apoptotic cells at 100 nM incubated for 48 hrs by annexin V-FITC/PI staining based flow cytometry (reference value: 9.99 %). The data set is classed as functional.
Data set [13] is described as follows: Metabolic stability in human liver microsomes assessed as half life. The data set is classed as ADME, Microsome.
For data set [14], the system named is BE(2)-C. The experiment in a line: Induction of cell cycle arrest in human BE2C cells assessed as increase in phosphorylated H3 expression by Western blot analysis. It counts as functional, cell-based. The note with it: dose 12.5-50 nM.
The nature of data set [15]: Aqueous solubility of compound at 1 mg incubated for 10 mins. It counts as physicochemical.
For data set [16], the system named is BE(2)-C. The experiment in a line: Induction of apoptosis in human BE2C cells assessed as viable cells at 25 nM incubated for 48 hrs by annexin V-FITC/PI staining based flow cytometry (reference value: 82.16 %). The note with it: read-out: Activity. The data set is classed as functional.
Data set [17] relates to BE(2)-C. The experiment in a line: Induction of apoptosis in human BE2C cells assessed as necrotic cells at 50 nM incubated for 48 hrs by annexin V-FITC/PI staining based flow cytometry (reference value: 3.57 %). The data set is classed as functional.
In data set [18] the test system is BE(2)-C. Kind of data set: Induction of cell cycle arrest in human BE2C cells assessed as accumulation at G2/M phase incubated for 24 hrs by RNase/PI staining based flow cytometry. It counts as functional. The conditions noted are these: […].
For the next data set, the system named is A549. The experiment in a line: Antiproliferative activity against human A549 cells incubated for 48 hrs by MTT assay. It counts as functional, cell-based. The conditions noted are these: A549, 48 h.
The test system of the next data set is HCT-116. The experiment in a line: Antiproliferative activity against human HCT-116 cells incubated for 48 hrs by MTT assay. The data set is classed as functional, cell-based. The note with it: HCT-116, 48 h.

Data on 1 molecule can be found in ChEMBL document CHEMBL5325505, “Discovery of chiral 1,4-diarylazetidin-2-one-based hydroxamic acid derivatives as novel tubulin polymerization inhibitors with histone deacetylase inhibitory activity” (Bioorg Med Chem, 2023).

Converted amounts (≈) assume the structure as drawn. The source made the active and inactive calls. The calls are words filed in the database; no cut-off is given here.

In general, IC50 refers to the concentration at which inhibition is half-maximal. A low value points to greater potency. By solubility is commonly meant the concentration that dissolves in the medium under given conditions.

Sequence of Histone deacetylase 1 (Q13547 whole entry): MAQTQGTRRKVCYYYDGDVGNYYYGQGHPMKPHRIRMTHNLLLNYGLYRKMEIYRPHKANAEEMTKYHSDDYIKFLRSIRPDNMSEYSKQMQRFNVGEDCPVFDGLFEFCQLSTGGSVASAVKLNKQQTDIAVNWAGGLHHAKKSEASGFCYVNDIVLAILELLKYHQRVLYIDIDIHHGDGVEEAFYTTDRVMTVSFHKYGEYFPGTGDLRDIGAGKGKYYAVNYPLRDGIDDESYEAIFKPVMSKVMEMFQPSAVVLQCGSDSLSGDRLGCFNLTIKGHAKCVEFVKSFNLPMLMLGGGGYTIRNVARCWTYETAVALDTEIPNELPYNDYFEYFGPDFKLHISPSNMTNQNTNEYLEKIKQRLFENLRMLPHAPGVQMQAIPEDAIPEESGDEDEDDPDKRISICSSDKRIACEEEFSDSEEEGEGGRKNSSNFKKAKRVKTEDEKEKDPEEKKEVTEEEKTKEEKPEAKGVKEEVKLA

With `COc1ccc([C@H]2[C@H](COC(=O)c3ccc(C(=O)NO)cc3)C(=O)N2c2cc(OC)c(OC)c(OC)c2)cc1O`, the Activity result with BE(2)-C [1] is “Dose-Dependent Effect”; in [2], “Non-Toxic”; in the data set on BE(2)-C [5], 29.09%; with BE(2)-C [8], 7.06%; with BE(2)-C [9], 11.81%; in the data set with BE(2)-C [11], 9.54%. For the same molecule, the Activity in the data set on BE(2)-C [12] was 44%; in the data set on BE(2)-C [14] it was “Dose-Dependent Effect”; in the data set on BE(2)-C [17], 8.53%; with BE(2)-C [18], “Dose-Dependent Effect”. The outcome with BE(2)-C [3] was Active. Also, in the data set with BE(2)-C [4], the viability at 0.1 µM was found to be 29.2%. Also, the inhibition result on Tubulin (Homo sapiens) and in the data set with BE(2)-C [10] was “Active” each time. In addition, the Stability in data set [6] is listed as 61.3%. The viability at 0.05 µM in the data set on BE(2)-C [7] was determined as 50.2%. For the same molecule, the IC50 against Histone deacetylase 1 was determined as 155 nM; in the data set with A549, 53 nM; in the data set with HCT-116, 51 nM. The t1/2 in [13] was 1.15 h. For the same molecule, the solubility at 10 min in [15] came to 102 µg/mL (≈ 185 µM). Also, in the data set with BE(2)-C [16], the viability at 0.025 µM turned out to be 62.1%.
